Data taken from the NIST ThermoML archive (doi:10.1021/je800998u).

Assay: molar heat capacity at constant pressure
Conditions: 101.33 kPa, Crystal 2, Small (less than 1 g) adiabatic calorimetry

CC(C)COCC(C)C [diisobutyl ether]
Conditions | molar heat capacity at constant pressure [J/K/mol]
8.82 K | 1.718
9.09 K | 1.873
9.35 K | 2.044
9.61 K | 2.275
9.86 K | 2.429
10 K | 2.519
10.18 K | 2.65
10.58 K | 2.937
10.96 K | 3.313
11.34 K | 3.685
11.75 K | 4.078
12.13 K | 4.434
12.5 K | 4.803
12.88 K | 5.199
13.25 K | 5.584
13.61 K | 6.04
13.98 K | 6.505
14.34 K | 6.941
14.71 K | 7.42
15 K | 7.709
15.07 K | 7.816
15.44 K | 8.198
15.8 K | 8.608
16.15 K | 9.109
16.51 K | 9.706
16.86 K | 10.12
17.21 K | 10.68
17.57 K | 11.14
17.92 K | 11.79
18.28 K | 12.13
18.63 K | 12.7
18.98 K | 13.24
19.33 K | 13.71
19.68 K | 14.26
20 K | 14.73
20.03 K | 14.7
20.68 K | 15.81
21.44 K | 17.01
22.21 K | 18.14
22.97 K | 19.36
23.73 K | 20.47
24.49 K | 21.77
25 K | 22.61
25.25 K | 22.85
26 K | 24.23
26.76 K | 25.53
27.53 K | 26.72
28.29 K | 27.81
29.04 K | 29.05
29.8 K | 30
30 K | 30.39
30.56 K | 31.03
31.31 K | 32.45
32.07 K | 33.45
32.84 K | 34.56
33.59 K | 35.68
34.35 K | 36.74
35 K | 37.65
35.1 K | 37.87
35.86 K | 38.82
36.61 K | 39.8
37.36 K | 40.72
38.11 K | 42.01
38.86 K | 43.03
39.62 K | 44.08
40 K | 44.52
40.37 K | 45.1
41.12 K | 46.17
41.87 K | 47.05
42.62 K | 47.91
43.37 K | 48.99
44.12 K | 49.85
44.88 K | 50.69
45 K | 51.04
45.63 K | 51.79
46.38 K | 52.94
47.13 K | 53.72
47.88 K | 54.52
48.63 K | 55.63
49.38 K | 56.47
50 K | 57.22
50.12 K | 57.39
50.87 K | 58.27
51.62 K | 59.17
52.36 K | 60.07
53.11 K | 61.06
53.85 K | 62.18
54.6 K | 63.09
55 K | 63.54
55.34 K | 63.95
56.09 K | 64.95
56.83 K | 66.04
57.57 K | 67.47
59.06 K | 68.36
59.81 K | 69.16
60 K | 69.69
60.55 K | 69.92
61.29 K | 71.03
62.03 K | 72.13
62.77 K | 72.85
63.51 K | 73.59
64.25 K | 74.59
64.99 K | 75.44
65 K | 75.34
65.73 K | 76.13
66.47 K | 76.73
67.21 K | 77.8
67.95 K | 78.53
68.69 K | 79.4
69.43 K | 79.64
70 K | 80.28
70.16 K | 80.5
71.06 K | 80.99
72.11 K | 81.81
73.16 K | 83.2
74.21 K | 84.22
75 K | 84.76
75.26 K | 84.92
76.31 K | 85.85
77.36 K | 86.85
77.99 K | 88.21
78.41 K | 87.75
79.13 K | 89.1
79.45 K | 89.04
80 K | 89.65
80.18 K | 90.02
80.5 K | 89.99
81.22 K | 91.36
81.55 K | 90.95
82.26 K | 92.28
82.59 K | 92.15
83.3 K | 92.88
83.63 K | 93.23
84.34 K | 93.83
84.68 K | 93.86
85 K | 94.92
85.37 K | 94.92
85.72 K | 96.14
86.41 K | 96.9
87.44 K | 97.86
88.48 K | 98.97
89.51 K | 100
90 K | 100.3
90.55 K | 101.18
91.58 K | 101.87
92.61 K | 102.82
93.65 K | 104.36
94.68 K | 104.93
95 K | 105.3
95.71 K | 105.7
96.75 K | 106.52
97.78 K | 107.57
98.81 K | 108.62
99.84 K | 109.08
100 K | 109.7
100.86 K | 110.59
101.89 K | 111.96
102.92 K | 112.24
103.95 K | 113.24
104.98 K | 114.44
106.01 K | 115.08
107.04 K | 116.13
108.06 K | 116.43
109.09 K | 117.54
110 K | 118.6
110.11 K | 118.56
111.14 K | 119.31
112.16 K | 120.35
113.18 K | 121.34
114.21 K | 122.79
115.23 K | 123.92
116.25 K | 124.47
117.27 K | 125.86
118.29 K | 126.81
119.32 K | 127.51
120 K | 128
120.34 K | 128.32
121.36 K | 129.04
122.38 K | 130.15
123.4 K | 131.15
124.42 K | 131.86
125.44 K | 132.59
126.46 K | 133.8
127.47 K | 134.67
128.49 K | 135.82
129.51 K | 137.05
130 K | 137.1
130.53 K | 137.63
131.54 K | 138.57
132.56 K | 139.45
133.57 K | 140.23
134.59 K | 141.56
135.6 K | 142.61
136.62 K | 143.17
137.63 K | 144.11
138.64 K | 145.82
139.66 K | 146.49
140 K | 147
